SMILES strings stand for the structures. Several values for one entry are separate records, joined by “and”; a condition that tells them apart may be missing. Equal entries are not always repeated.

What all share (type): in vivo, patients
Data set [1] deals with cerebellar tremor caused by MS, cerebellar degeneration or drug toxicity. Description: Placebo-controlled, double blind, crossover study: subjective response and patient identification of treatment assignment. More on the design: key to Subjective drug response: 0 = none; + = a little; ++ = moderate; +++ = a lot of improvement. The method, then:
A placebo-controlled, double blind, crossover study of intravenous ondansetron in twenty patients with cerebellar tremor caused by MS, cerebellar degeneration or drug toxicity was conducted. Most had tremor based upon cerebellar involvement from MS; three had familial degenerative disorders involving the cerebellum and one had acquired lithium toxicity. The clinical information and prior treatment of the patients is outlined below in Table 1. Patients were randomly assigned to receive intravenous ondansetron (8mg or a placebo, consisting of normal saline). The drug was given by intravenous bolus injection. Patients were given the alternate agent at a later interval. The clinical outcome was measured at baseline and one hour following the infusion. Patient identification of treatment assignment was correct in 12/20 instances and this was based upon efficacy. None believed placebo to be better (p=0.014; Fisher exact ratio).

The test system is the same in data set [2]. Description: Clinical observations: tolerability, long-term use, withdrawal, oral dosing.
Data set [3] has the same test system. Description: Placebo-controlled, double blind, crossover study: manual co-ordination (spiral copying, word copying or line drawing) judged by blind observers. Details: key to Spiral Writing drug: 0 = none; + = a little; ++ = moderate; +++ = a lot of improvement. The method, then:
(§1) A placebo-controlled, double blind, crossover study of intravenous ondansetron in twenty patients with cerebellar tremor caused by MS, cerebellar degeneration or drug toxicity was conducted. Most had tremor based upon cerebellar involvement from MS; three had familial degenerative disorders involving the cerebellum and one had acquired lithium toxicity. The clinical information and prior treatment of the patients is outlined below in Table 1. Patients were randomly assigned to receive intravenous ondansetron (8mg or a placebo, consisting of normal saline). The drug was given by intravenous bolus injection. Patients were given the alternate agent at a later interval. The principal outcome measure was the change in manual co-ordination tasks as assessed by spiral copying, word copying or line drawing and the time to complete a nine-hole peg test. Only 12 patients had sufficient co-ordination to complete the nine-hole peg test. The clinical outcome was measured at baseline and one hour following the infusion. Figures 1 (a), (b) and (c) represent an attempt to copy a spiral by the first mentioned patient in Table 1. Figure 1(a) represents an attempt prior to treatment with ondansetron; figure 1(b) an attempt after receiving placebo; and figure 1 (c) an attempt after receiving ondansetron.

For data set [4] the test system is unchanged. Description: Placebo-controlled, double blind, crossover study: time to complete a nine-hole peg test. The method, then: as §1, with “infusion.” for “infusion. Figures 1 (a), (b) and (c) represent an attempt to copy a spiral by the first mentioned patient in Table 1. Figure 1(a) represents an attempt prior to treatment with ondansetron; figure 1(b) an attempt after receiving placebo; and figure 1 (c) an attempt after receiving ondansetron.”

The mark [5] stands for this setting: individual patients, 8mg intravenous bolus, baseline vs one hour following the infusion.

Consider `Cc1nccn1CC1CCc2c(c3ccccc3n2C)C1=O` (stereo not drawn) [ondansetron, 1,2,3,9-tetrahydro-9-methyl-3-[(2-methyl-1H-imidazol-1-yl)methyl]-4H-carbazol-4-one], for which the “Patient identification of treatment assignment correct” value in data set [1] (based upon efficacy, none believed placebo to be better (p=0.014; Fisher exact ratio)) is listed as 12/20. Besides, the Subjective drug response entry in data set [1] (setting [5]) was “++ (5×) and 0 (8×) and + (3×) and +++ (3×) and + (dysarthria)”. The speech after treatment result in data set [1] (one patient with cerebellar degeneration too disabled to complete the tasks (Cd2, Table 1)) is on record as “improved speech”. Besides, in data set [1] (patients with improvement / patients assessed, 8mg intravenous, placebo 0/18), the “Subjective drug response, Ratio” value is 12/20. Besides, the “sustaining of the effect in the long term” value in data set [2] (long term use) is “could be sustained in the long term”. The “reproduction of the effect of intravenous ondansetron by oral dosing” value in data set [2] (oral ondansetron (8-16mg)) is given as “could be reproduced”. The tolerability result in data set [2] (patients with cerebellar tremor) is “well tolerated”. For the same compound, the “tremor after withdrawal of the medication” value in data set [2] (withdrawal) is given as “tremor returning to pre-study levels”. The “favourable clinical response, MS subgroup” value in data set [3] (MS subgroup of 16 patients, number with a response, p=0.001) came to 13. In addition, in data set [3] (entire study group, 8mg intravenous, p=0.009 vs placebo (Fisher exact ratio)), the “favourable clinical response identified by a panel of three blind observers” value is listed as 13 of the 20. In addition, the “Spiral Writing drug” value in data set [3] (setting [5]) was “+ (6×) and +++ (4×) and ++ (4×) and 0 (5×)”. In addition, in data set [3] (patients with improvement / patients assessed, 8mg intravenous, placebo 1/19), the “Spiral Writing drug, Ratio” value is recorded as 13/19. Also, in data set [4] (individual patients, 8mg intravenous bolus, one hour following the infusion), the “9 hole peg-drug” value was 110 secs and 63 secs and 155 secs and 55 secs (2×) and 48 secs and 180 secs and 85 secs and 57 secs and 45 secs and 70 secs and 29 secs. Also, in data set [4] (mean of 12 patients, 8mg intravenous, placebo 87±12), the “9 hole peg-drug (secs), Mean” value came out at 79 ± 13 s. Further, the “mean time for the completion of the nine hole peg test” value in data set [4] (± standard error, 8mg intravenous, placebo 87 ± 12, p=0.04 (Mann Whitney, one tailed, paired)) was found to be 79 ± 13 s.

The values are drawn from EP0851756B1, “USE OF ONDANSETRON IN THE MANUFACTURE OF A MEDICAMENT FOR THE TREATMENT OF TREMOR” (GLAXO GROUP LIMITED, priority 1995, dated 1997).
